The target in this assay is Mcl-1 protein (Homo sapiens, UniProt Q07820). The assay is described as follows: Inhibition of Mcl-1 by the fluorescence polarisation technique. Conditions: fluorescence polarisation test; Fluorescein labelled ligand 1 nM, Mcl-1 protein 5 nM, ~2 hours at r.t.; read-out: IC50 (M) Mcl-1 FP. It counts as binding. On the procedure: The relative binding potency of each compound was determined via Fluorescence Polarisation (FP). The method utilised a Fluorescein labelled ligand (Fluorescein-βAla-Ahx-A-REIGAQLRRMADDLNAQY-OH; mw 2,765) which binds to the Mcl-1 protein (such that Mcl-1 corresponds to the UniProtKB® primary accession number: Q07820) leading to an increased anisotropy measured in milli-polarisation (mP) units using a reader. The addition of a compound which binds competitively to the same site as the ligand will result in a greater proportion of unbound ligand in the system indicated by a decrease in mP units.
Sequence of Mcl-1 protein (Q07820 whole entry): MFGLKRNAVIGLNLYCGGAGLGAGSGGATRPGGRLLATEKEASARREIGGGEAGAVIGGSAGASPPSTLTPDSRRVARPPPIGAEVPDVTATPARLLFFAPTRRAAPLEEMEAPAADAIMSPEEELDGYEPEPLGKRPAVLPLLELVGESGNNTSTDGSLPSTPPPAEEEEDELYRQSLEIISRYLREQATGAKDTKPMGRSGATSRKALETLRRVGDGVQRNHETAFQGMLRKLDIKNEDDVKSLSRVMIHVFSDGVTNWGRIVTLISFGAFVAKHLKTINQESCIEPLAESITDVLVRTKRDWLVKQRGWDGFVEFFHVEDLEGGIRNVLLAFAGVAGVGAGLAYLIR
An 11 point serial dilution of each compound was prepared in DMSO and 2 μl transferred into flat bottomed, low binding, 384-well plate (final DMSO concentration 5%). 38 μl of buffer (10 mM 4-(2-hydroxyethyl)-1-piperazineethanesulfonic acid [HEPES], 150 mM NaCl, 0.05% Tween 20, pH 7.4), containing the Fluorescein labelled ligand (final concentration 1 nM) and Mcl-1 protein (final concentration 5 nM) was then added.
Assay plates were incubated ˜2 hours at r.t. before FP was measured on a Biomek Synergy2 reader (Ex. 528 nm, Em. 640 nm, Cut off 510 nm) and mP units calculated. The binding of increasing doses of test compound was expressed as a percentage reduction in mP compared to a window established between ‘5% DMSO only’ and ‘100% inhibition’ controls. 11-point dose response curves were plotted with XL-Fit software using a 4-Parameter Logistic Model (Sigmoidal Dose-Response Model) and the inhibitory concentrations that gave a 50% reduction in mP (IC50) were determined.

As for `COCCOCCOCCOc1cccc(-c2nccc(COc3ccccc3CC(Oc3ncnc4sc(-c5ccc(F)cc5)c(-c5ccc(OCCN6CCN(C)CC6)c(Cl)c5C)c34)C(=O)O)n2)c1` [Example 48, (2R)-2-{[(5Sa)-5-{3-chloro-2-methyl-4-[2-(4-methylpiperazin-1-yl)ethoxy]phenyl}-6-(4-fluorophenyl)thieno[2,3-d]pyrimidin-4-yl]oxy}-3-(2-{[2-(3-{2-[2-(2-methoxyethoxy)ethoxy]ethoxy}phenyl)pyrimidin-4-yl]methoxy}phenyl)propanoic acid], the IC50 was 3.85e-09 M.
Then `Cc1c(-c2c(-c3ccc(F)cc3)sc3ncnc(OC(Cc4ccccc4OCc4ccnc(-c5cccc(OCCN(CCO)CCO)c5)n4)C(=O)O)c23)ccc(OCCN2CCN(C)CC2)c1Cl` [Example 49, (2R)-3-(2-{[2-(3-{2-[bis(2-hydroxyethyl)amino]ethoxy}phenyl)pyrimidin-4-yl]methoxy}phenyl)-2-{[(5Sa)-5-{3-chloro-2-methyl-4-[2-(4-methylpiperazin-1-yl)ethoxy]phenyl}-6-(4-fluorophenyl)thieno[2,3-d]pyrimidin-4-yl]oxy}propanoic acid], with 4.65e-09 M.
On to `Cc1c(-c2c(-c3ccc(F)cc3)sc3ncnc(OC(Cc4ccccc4OCc4ccnc(-c5cccc(OCCN6CCOCC6)c5)n4)C(=O)O)c23)ccc(OCCN2CCN(C)CC2)c1Cl` [Example 51, (2R)-2-{[(5Sa)-5-{3-chloro-2-methyl-4-[2-(4-methylpiperazin-1-yl)ethoxy]phenyl}-6-(4-fluorophenyl)thieno[2,3-d]pyrimidin-4-yl]oxy}-3-{2-[(2-{3-[2-(morpholin-4-yl)ethoxy]phenyl}pyrimidin-4-yl)methoxy]phenyl}propanoic acid], for which the IC50 turned out to be 4.15e-09 M.
Then `Cc1c(-c2c(-c3ccc(F)cc3)sc3ncnc(OC(Cc4ccccc4OCc4ccnc(-c5cccc(OCCN(C)C)c5)n4)C(=O)O)c23)ccc(OCCN2CCN(C)CC2)c1Cl` [Example 52, (2R)-2-{[(5Sa)-5-{3-chloro-2-methyl-4-[2-(4-methylpiperazin-1-yl)ethoxy]phenyl}-6-(4-fluorophenyl)thieno[2,3-d]pyrimidin-4-yl]oxy}-3-{2-[(2-{3-[2-(dimethylamino)ethoxy]phenyl}pyrimidin-4-yl)methoxy]phenyl}propanoic acid], with 3.7e-09 M; and `Cc1c(-c2c(-c3ccc(F)cc3)sc3ncnc(OC(Cc4ccccc4OCc4ccnc(-c5ccc(OCCN(CCO)CCO)cc5)n4)C(=O)O)c23)ccc(OCCN2CCN(C)CC2)c1Cl` [Example 53, (2R)-3-(2-{[2-(4-{2-[bis(2-hydroxyethyl)amino]ethoxy}phenyl)pyrimidin-4-yl]methoxy}phenyl)-2-{[(5Sa)-5-{3-chloro-2-methyl-4-[2-(4-methylpiperazin-1-yl)ethoxy]phenyl}-6-(4-fluorophenyl)thieno[2,3-d]pyrimidin-4-yl]oxy}propanoic acid], with 4.65e-09 M.
To `Cc1c(-c2c(-c3ccc(F)cc3)sc3ncnc(OC(Cc4ccccc4OCc4ccnc(-c5ccc(OCCOCCOCCO)cc5)n4)C(=O)O)c23)ccc(OCCN2CCN(C)CC2)c1Cl` [Example 54, (2R)-2-{[(5Sa)-5-{3-chloro-2-methyl-4-[2-(4-methylpiperazin-1-yl)ethoxy]phenyl}-6-(4-fluorophenyl)thieno[2,3-d]pyrimidin-4-yl]oxy}-3-(2-{[2-(4-{2-[2-(2-hydroxyethoxy)ethoxy]ethoxy}phenyl)pyrimidin-4-yl]methoxy}phenyl)propanoic acid] belongs 4.6e-09 M.
Then `Cc1c(-c2c(-c3ccc(F)cc3)sc3ncnc(OC(Cc4ccccc4OCc4ccnc(-c5ccc(OCC6COC(C)(C)O6)cc5)n4)C(=O)O)c23)ccc(OCCN2CCN(C)CC2)c1Cl` [Example 55, (2R)-2-{[(5Sa)-5-{3-chloro-2-methyl-4-[2-(4-methylpiperazin-1-yl)ethoxy]phenyl}-6-(4-fluorophenyl)thieno[2,3-d]pyrimidin-4-yl]oxy}-3-{2-[(2-{4-[(2,2-dimethyl-1,3-dioxolan-4-yl)methoxy]phenyl}pyrimidin-4-yl)methoxy]phenyl}propanoic acid], with 6.35e-09 M.

The values are drawn from patent publication US10322131B2, “Hydroxyacid derivatives, a process for their preparation and pharmaceutical compositions containing them” (LES LABORATOIRES SERVIER, priority 2015, dated 2019).
